Assay results: PMC11662004 (Communications Chemistry, 2024)

Columns and labels:
[1] = target: T1, TET2CDΔLCI (Homo sapiens, UniProt Q6N021); assay: Continuous reaction monitoring (1H NMR), 2OG decarboxylation; type: biochemical
T1 construct: FLAG-[thrombin cleavage site]-SUMO (N); made in house; host or cells: E. coli
Experimental: Double-stranded DNA oligomers were added at a final concentration of 20 µM. Data plotted from two independent replicates (n = 2). Initial rates reported as the mean of two independent replicates (n = 2). TEXT PRINTED IN THE PICTURE: (c) No DNA: V0 (μM min^−1) NgTet1: 0.36; V0 (μM min^−1) TET2: 1.28; Relative V0 NgTet1: 1; Relative V0 TET2: 1 | (c) ^5HC DNA: V0 (μM min^−1) NgTet1: 1.30; V0 (μM min^−1) TET2: 6.34; Relative V0 NgTet1: 3.6; Relative V0 TET2: 5.0 | (c) AT DNA: V0 (μM min^−1) NgTet1: 0.82; V0 (μM min^−1) TET2: 5.78; Relative V0 NgTet1: 2.3; Relative V0 TET2: 4.5 | (c) ^5mC DNA: V0 (μM min^−1) NgTet1: 1.52; V0 (μM min^−1) TET2: 6.79; Relative V0 NgTet1: 4.2; Relative V0 TET2: 5.3
All ^1H NMR spectra were recorded at 25 °C using D2O as a reference for internal deuterium lock on a Bruker Avance III 700 MHz equipped with an inverse TCI cryoprobe in 3 or 5 mm diameter tubes with a total sample volume of 160 or 565 μL, respectively. The water signal was reduced using Perfect Echo excitation sculpting suppression. Chemical shifts are reported in ppm relative to D2O (δH = 4.70 ppm).
Spectrometer settings were determined using a control sample containing all reaction components excluding enzyme. TET enzyme was added to an identical sample, and the resulting assay mixture was transferred to an NMR tube before deposition into the instrument. […] Data acquisition was started following a brief spectrometer setting optimisation (up to 200 s delay between enzyme addition and data acquisition); 8–32 scans were accumulated for a single spectrum, corresponding to 65–179 s of acquisition time. Spectrum recordings were carried out consecutively without delay. Data were processed using automated routines on MestReNova v14.2.0; signals of interest were integrated with absolute intensity scaling. ^1H NMR time courses reported in figures are representative results from two or three independent replicates.

[2] = target: T2, NgTet1 (Naegleria gruberi, UniProt D2W6T1); assay: End-point analysis for tandem activity detection (SPE-MS); type: biochemical; details: 5 µM NgTet1, 20 µM DNA, SPE-MS (Fig. S4)
T2 construct: His6-tagged full-length Naegleria gruberi NgTet1 (321 a. a.) protein with a thrombin cleavage site; made in house; host or cells: E. coli BL21(DE3)
T2 sequence (D2W6T1 1-321): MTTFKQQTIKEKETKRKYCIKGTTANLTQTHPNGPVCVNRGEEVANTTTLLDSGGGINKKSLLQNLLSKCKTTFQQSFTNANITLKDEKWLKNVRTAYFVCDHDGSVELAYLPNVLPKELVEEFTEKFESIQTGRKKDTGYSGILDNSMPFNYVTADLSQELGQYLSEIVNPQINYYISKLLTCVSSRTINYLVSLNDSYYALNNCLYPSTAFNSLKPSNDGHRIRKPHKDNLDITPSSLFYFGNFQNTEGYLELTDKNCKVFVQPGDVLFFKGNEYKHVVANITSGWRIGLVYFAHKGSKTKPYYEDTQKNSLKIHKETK
Experimental: SPE-MS spectra were recorded on an Agilent RapidFire 365 High-throughput Mass Spectrometry system coupled to an Agilent 6550 iFunnel Q-TOF mass spectrometer following reported procedures[33],[34]. A RapidFire C4 (type A) solid-phase extraction (SPE) cartridge (Agilent, Cat#: G9203A) was used for analyte separation. A binary solvent system was used. Solvent A: 6 mM octylammonium acetate (prepared as described previously)[45] in H2O; solvent B: 80% v/v MeCN in H2O. Samples were aspirated into the sample loop using vacuum (40 μL) from a 96/384-well plate and loaded directly onto the SPE cartridge. The cartridge was washed with solvent A (4,000 ms, 1.5 mL min^−1), and the analyte was eluted with solvent B (4000 ms; 1.25 mL min^−1) onto the Q-TOF MS. Following each sample injection, the SPE cartridge was flushed with 3–6 cycles of H2O and MeCN to remove residual analyte before re-equilibration into solvent A. Q-TOF settings for DNA oligomer analysis were as follows: drying gas temperature: 280 °C; drying gas flow: 13 L min^−1; nebuliser gas pressure: 40 psig; sheath gas temperature: 350 °C; sheath gas flow: 12 L min^−1; capillary voltage (Vcap): 4000 V; nozzle voltage: 0 V; fragmentor voltage: 250 V; spectrum acquisition rate: 5 Hz. Data was processed using Agilent MassHunter Qualitative Analysis™ (B.07.00) and RapidFire Integrator software.
The samples were analysed by SPE-MS. […]

5HC DNA: non-methylated DNA of the same sequence, 5'-ACC ACC GGT GGT-3', non-substrate (DNA ACCACCGGTGGT; DNA, backbone not given here)
V0 TET2 ([1]; 20 µM DNA, 100 μM 2OG, 5 μM TET2CDΔLCI): 6.34 µM/min
succinate ([1]; n = 1, time (min) 5HC DNA 5.78333, AT DNA 5.73333, 5mC DNA 5.58333): 44.3007 µM
succinate ([1]; n = 1, time (min) 5HC DNA 8.86667, AT DNA 8.81667, 5mC DNA 8.65): 54.4828 µM
succinate ([1]; n = 1, time (min) 5HC DNA 11.95, AT DNA 11.8833, 5mC DNA 11.7333): 59.3102 µM
succinate ([1]; n = 1, time (min) 5HC DNA 15.0333, AT DNA 14.9667, 5mC DNA 14.8167): 61.4847 µM
succinate ([1]; n = 1, time (min) 5HC DNA 18.1167, AT DNA 18.05, 5mC DNA 17.9): 65.1131 µM
succinate ([1]; n = 1, time (min) 5HC DNA 21.2333, AT DNA 21.1333, 5mC DNA 21): 67.3764 µM
succinate ([1]; n = 1, time (min) 5HC DNA 24.3333, AT DNA 24.2167, 5mC DNA 24.0667): 68.0997 µM
succinate ([1]; n = 1, time (min) 5HC DNA 27.4167, AT DNA 27.3, 5mC DNA 27.15): 69.3831 µM
succinate ([1]; n = 1, time (min) 5HC DNA 30.55, AT DNA 30.3833, 5mC DNA 30.2333): 70.6241 µM
succinate ([1]; n = 1, time (min) 5HC DNA 33.65, AT DNA 33.4667, 5mC DNA 33.3167): 71.0252 µM
succinate ([1]; n = 1, time (min) 5HC DNA 36.7333, AT DNA 36.5333, 5mC DNA 36.4): 71.8004 µM
succinate ([1]; n = 1, time (min) 5HC DNA 39.8333, AT DNA 39.6167, 5mC DNA 39.4833): 71.1327 µM
succinate ([1]; n = 1, time (min) 5HC DNA 42.9, AT DNA 42.7, 5mC DNA 42.5667): 71.8764 µM
succinate ([1]; n = 1, time (min) 5HC DNA 46, AT DNA 45.7833, 5mC DNA 45.6667): 73.8393 µM
succinate ([1]; n = 1, time (min) 5HC DNA 49.0833, AT DNA 48.8667, 5mC DNA 48.75): 72.8966 µM
succinate ([1]; n = 1, time (min) 5HC DNA 52.1667, AT DNA 51.95, 5mC DNA 51.8333): 73.2704 µM
succinate ([1]; n = 1, time (min) 5HC DNA 55.25, AT DNA 55.0333, 5mC DNA 54.9167): 74.052 µM
succinate ([1]; n = 1, time (min) 5HC DNA 58.3167, AT DNA 58.1167, 5mC DNA 58): 74.0256 µM
succinate ([1]; n = 1, time (min) 5HC DNA 61.4, AT DNA 61.2667, 5mC DNA 61.1): 74.622 µM
succinate ([1]; n = 2, time (min) 5HC DNA 5.66667, AT DNA 5.66667, 5mC DNA 5.8): 46.0808 µM
succinate ([1]; n = 2, time (min) 5HC DNA 8.75, AT DNA 8.75, 5mC DNA 8.88333): 55.6216 µM
succinate ([1]; n = 2, time (min) 5HC DNA 11.8333, AT DNA 11.85, 5mC DNA 11.9667): 60.916 µM
succinate ([1]; n = 2, time (min) 5HC DNA 14.9167, AT DNA 14.9333, 5mC DNA 15.05): 64.6085 µM
succinate ([1]; n = 2, time (min) 5HC DNA 18.0167, AT DNA 18.0167, 5mC DNA 18.1167): 67.8421 µM
succinate ([1]; n = 2, time (min) 5HC DNA 21.1, AT DNA 21.1, 5mC DNA 21.2): 69.2588 µM
succinate ([1]; n = 2, time (min) 5HC DNA 24.1833, AT DNA 24.1667, 5mC DNA 24.2833): 70.2836 µM
succinate ([1]; n = 2, time (min) 5HC DNA 27.25, AT DNA 27.25, 5mC DNA 27.3667): 71.3409 µM
succinate ([1]; n = 2, time (min) 5HC DNA 30.3333, AT DNA 30.3333, 5mC DNA 30.45): 71.8731 µM
succinate ([1]; n = 2, time (min) 5HC DNA 33.4167, AT DNA 33.4167, 5mC DNA 33.5333): 71.8297 µM
succinate ([1]; n = 2, time (min) 5HC DNA 36.5, AT DNA 36.5, 5mC DNA 36.6167): 74.102 µM
succinate ([1]; n = 2, time (min) 5HC DNA 39.5833, AT DNA 39.5833, 5mC DNA 39.7): 75.5956 µM
succinate ([1]; n = 2, time (min) 5HC DNA 42.6667, AT DNA 42.6667, 5mC DNA 42.7833): 75.7723 µM
succinate ([1]; n = 2, time (min) 5HC DNA 45.75, AT DNA 45.75, 5mC DNA 45.8667): 76.9891 µM
succinate ([1]; n = 2, time (min) 5HC DNA 48.8333, AT DNA 48.8333, 5mC DNA 48.95): 76.9274 µM
Relative V0 TET2 ([1]; relative to reactions without DNA): 5.0
enzymatic oxidation by NgTet1 [2]: did not undergo enzymatic oxidation
